Assay results as given in US9556190B2, “Piperidinyloxy lactone orexin receptor antagonists” (MERCK SHARP & DOHME CORP., priority 2013, dated 2017).

What was measured:
[1] = target: human orexin-2 receptor (Homo sapiens (Human), UniProt O43614); assay: FLIPR Ca2+ Flux Assay, CHO cells expressing orexin-2 receptor; type: cell-based; conditions: 70 pM Ala-6,12 orexin-A agonist, read-out: hOX2R FLIPR IC50
Description: The utility of the compounds in accordance with the present invention as orexin receptor OX1R and/or OX2R antagonists may be readily determined without undue experimentation by methodology well known in the art, including the “FLIPR Ca^2+ Flux Assay” (Okumura et al., Biochem. Biophys. Res. Comm. 280:976-981, 2001). In a typical experiment the OX1 and OX2 receptor antagonistic activity of the compounds of the present invention was determined in accordance with the following experimental method. For intracellular calcium measurements, Chinese hamster ovary (CHO) cells expressing the rat orexin-1 receptor or the human orexin-2 receptor, are grown in Iscove's modified DMEM containing 2 mM L-glutamine, […], 1% hypoxanthine-thymidine supplement, 100 U/ml penicillin, 100 μg/ml streptomycin and 10% heat-inactivated fetal calf serum (FCS). The cells are seeded at 20,000 cells/well into Becton-Dickinson black 384-well clear bottom sterile plates coated with poly-D-lysine. All reagents were from GIBCO-Invitrogen Corp. The seeded plates are incubated overnight at 37° C. and 5% CO2. Ala-6,12 human orexin-A as the agonist is prepared as a 1 mM stock solution in 1% bovine serum albumin (BSA) and diluted in assay buffer (HBSS containing 20 mM HEPES, 0.1% BSA and 2.5 mM probenecid, pH7.4) for use in the assay at a final concentration of 70 pM. Test compounds are prepared as 10 mM stock solution in DMSO, then diluted in 384-well plates, first in DMSO, then assay buffer. On the day of the assay, cells are washed 3 times with 100 μl assay buffer and then incubated for 60 min (37° C., 5% CO2) in 60 μl assay buffer containing 1 μM Fluo-4AM ester, 0.02% pluronic acid, and 1% BSA. The dye loading solution is then aspirated and cells are washed 3 times with 100 μl assay buffer. 30 μl of that same buffer is left in each well. Within the Fluorescent Imaging Plate Reader (FLIPR, Molecular Devices), test compounds are added to the plate in a volume of 25 μl, incubated for 5 min and finally 25 μl of agonist is added. Fluorescence is measured for each well at 1 second intervals for 5 minutes and the height of each fluorescence peak is compared to the height of the fluorescence peak induced by 70 pM Ala-6,12 orexin-A with buffer in place of antagonist. For each antagonist, IC50 value (the concentration of compound needed to inhibit 50% of the agonist response) is determined. Alternatively, compound potency can be assessed by a radioligand binding assay (described in Bergman et. al. Bioorg. Med. Chem. Lett. 2008, 18, 1425-1430) in which the inhibition constant (Ki) is determined in membranes prepared from CHO cells expressing either the OX1 or OX2 receptor. The intrinsic orexin receptor antagonist activity of a compound which may be used in the present invention may be determined by these assays.

[2] = target: hOX1R (Homo sapiens, UniProt O43613); assay: FLIPR Ca2+ Flux Assay, CHO cells expressing orexin-1 receptor; type: cell-based; conditions: 70 pM Ala-6,12 orexin-A agonist

human orexin-2 receptor, sequence (O43614 whole entry): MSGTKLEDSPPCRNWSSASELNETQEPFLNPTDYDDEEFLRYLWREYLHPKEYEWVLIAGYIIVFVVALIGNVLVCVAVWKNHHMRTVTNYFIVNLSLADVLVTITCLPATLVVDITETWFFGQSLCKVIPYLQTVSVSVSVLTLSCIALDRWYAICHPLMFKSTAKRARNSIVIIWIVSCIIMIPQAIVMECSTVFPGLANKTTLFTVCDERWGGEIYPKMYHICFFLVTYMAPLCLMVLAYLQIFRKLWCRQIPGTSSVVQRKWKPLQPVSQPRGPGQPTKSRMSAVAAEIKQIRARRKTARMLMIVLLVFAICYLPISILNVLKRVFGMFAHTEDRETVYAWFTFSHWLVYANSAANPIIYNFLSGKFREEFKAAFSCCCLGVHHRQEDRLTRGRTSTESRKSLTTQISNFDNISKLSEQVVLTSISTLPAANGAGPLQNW

SMILES	IC50 [1] [nM]	IC50 [2] [nM]
C[C@@H]1CC[C@@H](Oc2nccc3c2C(=O)OC3(C)C)CN1C(=O)c1c(F)cccc1-n1nccn1 [Example 2, 4-{[(3R,6R)-1-{[2-Fluoro-6-(2H-1,2,3-triazol-2-yl)phenyl]carbonyl}-6-methylpiperidin-3-yl]oxy}-1,1-dimethylfuro[3,4-c]pyridin-3(1H)-one]	44	10000
C[C@@H]1CC[C@@H](Oc2nccc3c2COC3=O)CN1C(=O)c1ccccc1-n1ncnn1 [Example 34, 4-{[(3R,6R)-6-methyl-1-{[2-(2H-tetrazol-2-yl)phenyl]carbonyl}-piperidin-3-yl]oxy}-furo[3,4-c]pyridin-1(3H)-one]	30	10000
C[C@@H]1CC[C@@H](Nc2nccc3c2C(=O)OC3(C)C)CN1C(=O)c1ccccc1-n1ncnn1 [Example 41, 1,1-Dimethyl-4-{[(3R,6R)-6-methyl-1-{[2-(2H-tetrazol-2-yl)phenyl]carbonyl}piperidin-3-yl]amino}furo[3,4-c]pyridin-3(1H)-one]	15	10000
C[C@@H]1CC[C@@H](Oc2nccc3c2C(=O)OC3(C)C)CN1C(=O)c1ccsc1-c1ncccn1 [Example 25, 1,1-dimethyl-4-(((3R,6R)-6-methyl-1-(2-(pyrimidin-2-yl)thiophene-3-carbonyl)piperidin-3-yl)oxy)furo[3,4-c]pyridin-3(1H)-one]	44	9110
C[C@@H]1CC[C@@H](Oc2nccc3c2C(=O)OC3(C)C)CN1C(=O)c1c(F)cccc1-c1ncccn1 [Example 26, 4-({(3R,6R)-1-[(2-fluoro-6-pyrimidin-2-ylphenyl)carbonyl]-6-methylpiperidin-3-yl}oxy)-1,1-dimethylfuro[3,4-c]pyridin-3(1H)-one]	109	10000
C[C@@H]1CC[C@@H](Oc2nccc3c2COC3=O)CN1C(=O)c1cscc1-c1ncccn1 [Example 35, 4-({(3R,6R)-6-methyl-1-[(4-pyrimidin-2-ylthiophen-3-yl)carbonyl]piperidin-3-yl}oxy)furo[3,4-c]pyridin-1(3H)-one]	20	10000
Cc1nc(-c2cc(F)ccc2C(=O)N2C[C@H](Oc3nccc4c3C(=O)OC4(C)C)CC[C@H]2C)no1 [Example 15, 4-{[(3R,6R)-1-{[4-fluoro-2-(5-methyl-1,2,4-oxadiazol-3-yl)phenyl]carbonyl}-6-methylpiperidin-3-yl]oxy}-1,1-dimethylfuro[3,4-c]pyridin-3(1H)-one]	232	10000
C[C@@H]1CC[C@@H](Oc2nccc3c2C(=O)OC3(C)C)CN1C(=O)c1ccccc1-c1ncccn1 [Example 22, 1,1-Dimethyl-4-{[(3R,6R)-6-methyl-1-{[2-(pyrimidin-2-yl)phenyl]carbonyl}piperidin-3-yl]oxy}furo[3,4-c]pyridin-3(1H)-one]	76	3260
C[C@@H]1CC[C@@H](Oc2nccc3c2C(=O)OC3(C)C)CN1C(=O)c1c(F)cccc1-n1nccn1 [Example 6, 4-(((3R,6R)-1-(2-fluoro-6-(2H-1,2,3-triazol-2-yl)benzoyl)-6-methylpiperidin-3-yl)oxy)-1,1-dimethylfuro[3,4-c]pyridin-3(1H)-one]	13	2710
C[C@@H]1CC[C@@H](Oc2nccc3c2COC3=O)CN1C(=O)c1ccsc1-c1ncccn1 [Example 37, 4-({(3R,6R)-6-methyl-1-[(2-pyrimidin-2-ylthiophen-3-yl)carbonyl]piperidin-3-yl}oxy)furo[3,4-c]pyridin-1(3H)-one]	27	6160
C[C@@H]1CC[C@@H](Nc2nccc3c2C(=O)OC3(C)C)CN1C(=O)c1ccsc1-c1ncccn1 [Example 44, 1,1-Dimethyl-4-({(3R,6R)-6-methyl-1-[(2-pyrimidin-2-ylthiophen-3-yl)carbonyl]piperidin-3-yl}amino)furo[3,4-c]pyridin-3(1H)-one]	28	1000
C[C@@H]1CC[C@@H](Oc2nccc3c2COC3=O)CN1C(=O)c1ccsc1-n1nccn1 [Example 29, 4-{[(3R,6R)-6-methyl-1-{[2-(2H-1,2,3-triazol-2-yl)thiophen-3-yl]carbonyl}piperidin-3-yl]oxy}furo[3,4-c]pyridin-1(3H)-one]	16	3160
C[C@@H]1CC[C@@H](Oc2nccc3c2COC3=O)CN1C(=O)c1ccccc1-c1ncccn1 [Example 36, 4-({(3R,6R)-6-methyl-1-[(2-pyrimidin-2-ylphenyl)car-bonyl]piperidin-3-yl}oxy)furo[3,4-c]pyridin-1(3H)-one]	20	3100
C[C@@H]1CC[C@@H](Oc2nccc3c2COC3=O)CN1C(=O)c1ccccc1C1(C#N)CC1 [Example 31, 1-[2-({(2R,5R)-2-methyl-5-[(1-oxo-1,3-dihydrofuro[3,4-c]pyridin-4-yl)oxy]-piperidin-1-yl}-carbonyl)-phenyl]cyclo-propane-carbonitrile]	12	1780
C[C@@H]1CC[C@@H](Nc2nccc3c2C(=O)OC3)CN1C(=O)c1ccccc1-n1nccn1 [Example 40, 4-{[(3R,6R)-6-Methyl-1-{[2-(2H-1,2,3-triazol-2-yl)phenyl]carbonyl}piperidin-3-yl]amino}furo[3,4-c]pyridin-3(1H)-one]	136	10000
C[C@@H]1CC[C@@H](Nc2nccc3c2C(=O)OC3(C)C)CN1C(=O)c1ccsc1-n1nccn1 [Example 43, 1,1-dimethyl-4-{[(3R,6R)-6-methyl-1-{[2-(2H-1,2,3-triazol-2-yl)thiophen-3-yl]-carbonyl}piperidin-3-yl]amino}-furo[3,4-c]pyridin-3(1H)-one]	19	10000
COc1ccc(C(=O)N2C[C@H](Oc3nccc4c3C(=O)OC4(C)C)CC[C@H]2C)c(-n2nccn2)n1 [Example 12, 4-{[(3R,6R)-1-{[6-methoxy-2-(2H-1,2,3-triazol-2-yl)pyridin-3-yl]carbonyl}-6-methylpiperidin-3-yl]oxy}-1,1-dimethylfuro[3,4-c]pyridin-3(1H)-one]	195	10000
C[C@@H]1CC[C@@H](Oc2nccc3c2COC3=O)CN1C(=O)c1ccccc1-n1nccn1 [Example 28, 4-{[(3R,6R)-6-Methyl-1-{[2-(2H-1,2,3-triazol-2-yl)phenyl]carbonyl}piperidin-3-yl]oxy}furo[3,4-c]pyridin-1(3H)-one]	16	4670
C[C@@H]1CC[C@@H](N(C)c2nccc3c2C(=O)OC3(C)C)CN1C(=O)c1ccccc1-n1ncnn1 [Example 45, 1,1-Dimethyl-4-{methyl[(3R,6R)-6-methyl-1-{[2-(2H-tetrazol-2-yl)phenyl]carbonyl}piperidin-3-yl]amino}furo[3,4-c]pyridin-3(1H)-one]	127	9330
Cc1noc(-c2cc(F)ccc2C(=O)N2C[C@H](Oc3nccc4c3C(=O)OC4(C)C)CC[C@H]2C)n1 [Example 19, 4-{[(3R,6R)-1-{[4-fluoro-2-(3-methyl-1,2,4-oxadiazol-5-yl)phenyl]carbonyl}-6-methylpiperidin-3-yl]oxy}-1,1-dimethylfuro[3,4-c]pyridin-3(1H)-one]	382	10000
C[C@@H]1CC[C@@H](Oc2nccc3c2C(=O)OC3(C)C)CN1C(=O)c1cc(Cl)ccc1-n1nccn1 [Example 3, 4-{[(3R,6R)-1-{[5-chloro-2-(2H-1,2,3-triazol-2-yl)phenyl]carbonyl}-6-methylpiperidin-3-yl]oxy}-1,1-dimethylfuro[3,4-c]pyridin-3(1H)-one]	42	3740
Cc1noc(-c2ccc(F)cc2C(=O)N2C[C@H](Oc3nccc4c3C(=O)OC4(C)C)CC[C@H]2C)n1 [Example 18, 4-{[(3R,6R)-1-{[5-fluoro-2-(3-methyl-1,2,4-oxadiazol-5-yl)phenyl]carbonyl}-6-methylpiperidin-3-yl]oxy}-1,1-dimethylfuro[3,4-c]pyridin-3(1H)-one]	90	10000
COc1ccc(C(=O)N2C[C@H](Oc3nccc4c3C(=O)OC4(C)C)CC[C@H]2C)c(-n2nccn2)c1 [Example 11, 4-{[(3R,6R)-1-{[4-methoxy-2-(2H-1,2,3-triazol-2-yl)phenyl]carbonyl}-6-methylpiperidin-3-yl]oxy}-1,1-dimethylfuro[3,4-c]pyridin-3(1H)-one]	147	10000
